Assay results reported in US12545637B2, “Extrahepatic targeted cationic lipid compound with high efficiency and low toxicity and its composition” (BEIJING YOUCARE KECHUANG PHARMACEUTICAL TECHNOLOGY CO., LTD., priority 2023, dated 2026).

Assays:
[1] = Particle size and polydispersity index (PDI) of lipid nanoparticles by dynamic light scattering; format: physicochemical; conditions: for PDI: LNP formulation of the cationic lipid, 25° C.; for Particle size: LNP formulation of the cationic lipid/DSPC/cholesterol/DMG-PEG2000 49:10:39.5:1.5, 25° C.
Protocol: The particle size and polydispersity index (PDI) were determined by dynamic light scattering using Malvern laser particle size analyzer.
10 μL of the liposome solution was weighed, diluted to 1 mL with RNase-free deionized water, and added to the sample pool. Each sample was measured in triplicate. The measurement conditions were: […] scattering angle, and 25° C.

[2] = Detection of encapsulation efficiency, drug loading concentration and total RNA concentration (RiboGreen); format: physicochemical; conditions: LNP formulation prepared from the cationic lipid
From the text: Encapsulation efficiency is a key quality attribute of liposomes, which refers to the percentage of drug content encapsulated in the lipid bimolecular layer accounting for the total drug dose and can reflect the degree of drug encapsulation in liposomes. The Chinese Pharmacopoeia stipulates that the encapsulation efficiency should generally not be less than 80%.
The drug loading amount is the ratio of the amount of drug in the liposome to the total amount of drug and carrier in the liposome. The drug loading amount directly affects the clinical application dose of the drug. […] The drug loading concentration is proportional to the drug loading amount, and the relative proportion of the drug loading concentrations can represent the relative proportion of the drug loading amounts. The relative ratio of the total RNA concentrations may represent the relative ratio of the amounts of mRNA carried by the LNP formulations.
1×TE buffer, 0.1% Triton X-100 buffer, RiboGreen reagent (1: 200) and mRNA standard stock solution were prepared.
An appropriate amount of the sample was added to an appropriate amount of 1×TE buffer, and the mixture was diluted to obtain a solution containing approximately […] sample per 1 mL. Then the sample was added to a 96-well plate, and 50 μL of the diluted test sample or the mRNA standard stock solution was added to each well, then 1×TE buffer and 0.1% Triton X-100 buffer were added. The sample was incubated at 37° C. for 10 minutes, and 100 μL RiboGreen reagent (1:200) was added to each well of the test sample in the 96-well plate. The sample was centrifugated, and the data were read using a microplate reader, and processed.

293T cells [3] = experiment: Fluorescent detection of Fluc-mRNA (cell transfection efficiency of LNP formulations); format: cell-based; conditions: for Relative light unit (RLU): LNP with 0.3 μg Fluc-mRNA, 96-well plate, 24 hours
Protocol: (§1) Seeding plate: The cells in the culture dish were digested and counted. Cells were spread in a 96-well plate at 10,000 cells per well and in a 12-well plate at 150,000 cells per well. Cells were cultured overnight until the cells adhered to the wall.
The corresponding reagents were added according to the instructions of the Gaussia Luciferase Assay Kit, and the fluorescence expression intensity of each well was detected by an IVIS fluorescence detection system.

293T cells [4] = experiment: Cell survival rate assay (CCK-8); format: cell-based; conditions: LNP with 1.5 μg Fluc-mRNA, 24 hours, CCK-8
Protocol: Cell recovery and passage: 293T cells were recovered, cultured in a culture dish, and passaged to the required number of cells.
as §1
An LNP formulation containing 1.5 μg of Fluc-mRNA (prepared according to example 4, the carrier components of the LNP formulation were cationic lipid, neutral lipid, structured lipid and polymer-conjugated lipid at a molar ratio of 49:10:39.5:1.5, wherein the cationic lipid was listed in Table 1) and the formulation of Lipofectamine 3000 were added to the cell culture medium of a 96-well plate, and further cultivated for 24 hours. 10 μL of CCK-8 solution was then added to each well, and the culture plate was incubated in an incubator for 1 hour. The absorbance at 450 nm was measured by a microplate reader.

female BALB/C mice = experiment: In vivo imaging in mice of Fluc-mRNA LNP formulations (mRNA expression and duration); conditions: Fluc-mRNA LNP intramuscular; for average radiation intensity, 6 h: 6 h after administration; for average radiation intensity, 24 h: 24 h after administration; for average radiation intensity, 48 h: 48 h after administration; for average radiation intensity, 7 d: 7 d after administration
Protocol: The LNP formulation (prepared according to Example 4) containing […] Fluc-mRNA was injected intramuscularly into female BALB/C mice aged 4-6 weeks and weighed 17-19 g, and the mice were intraperitoneally injected with fluorescent imaging substrate at specific time points after administration (6h, 24 h, 48h and 7d), where the mice were allowed to free move for 5 minutes, and then the average radiation intensity (corresponding to fluorescence expression intensity) of the protein expression of the mRNA carried by the LNP in the mice was detected by the IVIS Spectrum small animal in vivo imaging system.

SMILES	PDI [1] [%]	Particle size [1] [nm]	Drug loading concentration [2] [µg/mL]	Encapsulation efficiency [2] [%]	Total RNA concentration [2] [µg/mL]	Relative light unit (RLU) (293T cells [3])	Cell survival rate (293T cells [4]) [%]	average radiation intensity, 6 h (female BALB/C mice)	average radiation intensity, 24 h (female BALB/C mice)	average radiation intensity, 48 h (female BALB/C mice)	average radiation intensity, 7 d (female BALB/C mice)	cell transfection efficiency, times that of YK-417 (293T cells [3]; ratio vs YK-417)
CCCCCCCCCCOC(=O)CCCN(CCO)CCN(CCO)CCCC(=O)OC(CCCCCCCC)CCCCCCCC [YK-408, heptadecan-9-yl 4-((2-hydroxyethyl)(2-((2-hydroxyethyl)(4-(decyloxy)-4-oxobutyl)amino)ethyl)amino)butyrate]	16.2	136	45.42	86.6	52.46	1474136	42.31					
CCCCCCCCCCOC(=O)CCCN(CCO)CCCN(CCO)CCCC(=O)OC(CCCCCCCC)CCCCCCCC [YK-414, decyl 4-(3-((4-(heptadecan-9-yloxy)-4-oxobutyl)(2-hydroxyethyl)amino)propyl)(2-hydroxyethyl)aminobutyrate]						444089	28.75					
CCCCCCCCCCOC(=O)CCCN(CCO)CCCCCC(=O)OCC(CCCCCCCC)CCCCCCCC [YK-009, reference compound]	16.0	189	27.52	63.4	38.50	5146376	70.43	981240	705470	100560	9555	
CCCCCCCCC(CCCCCCCC)C(=O)OCCCCCCN(CCO)CCCN(CCO)CCCCCCOC(=O)C(CCCCCCCC)CCCCCCCC [YK-412, (propane-1,3-diyl-bis((2-hydroxyethyl)azanediyl))-bis(hexane-6,1-diyl)bis(2-octyldecanoate)]						3371352	54.14					
CCCCCCCCCCOC(=O)CCCCCN(CCO)CCCN(CCO)CCCCCC(=O)OCC(CCCCCCCC)CCCCCCCC [YK-416, decyl 6-((2-hydroxyethyl)(3-((2-hydroxyethyl)(6-((2-octyldecyl)oxy)-6-oxohexyl)amino)propyl)amino)hexanoate]	19.7	190	25.16	79.6	31.62	3975264	40.97					34
CCCCCCCCC(CCCCCCCC)OC(=O)CCCCCN(CCO)CCCCN(CCO)CCCCCC(=O)OC(CCCCCCCC)CCCCCCCC [YK-420, di(heptadecan-9-yl) 6,6′-(butane-1,4-diylbis((2-hydroxyethyl)azanediyl))dihexanoate]	14.2	169	35.87	94.9	37.81	4019330	35.59					
CCCCCCCCCCCOC(=O)CCCN(CCO)CCN(CCO)CCCCCC(=O)OCC(CCCCCCCC)CCCCCCCC [YK-409, 2-octyldecyl 6-((2-hydroxyethyl)(2-((2-hydroxyethyl)(4-(undecyloxy)-4-oxobutyl)amino)ethyl)amino) hexanoate]	13.7	155	34.14	86.9	39.27	669807	46.11					
CCCCCCCCCCOC(=O)CCCCCN(CCO)CCCN(CCO)CCCCCC(=O)OCCC(CCCCCC)CCCCCC [YK-417]	17.7	128	25.02	74.8	33.46	117287	21.34	60480	19987	7045	2284	
CCCCCCCCCCOC(=O)CCCN(CCO)CCN(CCO)CCCCCC(=O)OC(CCCCCCCC)CCCCCCCC [YK-405, Heptadecan-9-yl 6-((2-hydroxyethyl)(2-((2-hydroxyethyl)(4-(decyloxy)-4-oxobutyl)amino)ethyl)amino)hexanoate]	4.3	141	33.42	83.2	40.19	3197780	41.86					
CCCCCCCCCCOC(=O)CCCN(CCO)CCCCN(CCO)CCCCCC(=O)OC(CCCCCCCC)CCCCCCCC [YK-421, heptadecan-9-yl 6-((4-((4-(decyloxy)-4-oxobutyl)(2-hydroxyethyl)amino)butyl)(2-hydroxyethyl)amino)hexanoate]	17.4	148	33.93	83.1	40.83	466616	35.71					
CCCCCCCCCCCOC(=O)CCCN(CCO)CCN(CCO)CCCCCCOC(=O)CC(CCCCCC)CCCCCC [YK-406, 6-((2-hydroxyethyl) (2-((2-hydroxyethyl)(4-(undecyloxy)-4-oxobutyl)amino)ethyl)amino)hexyl 3-hexylnonanoate]	15.8	154	30.19	87.8	34.41	78251	24.96					
CCCCCCCCCCCOC(=O)CCCN(CCO)CCCN(CCO)CCCCCC(=O)OC(CCCCCCCC)CCCCCCCC [YK-413, heptadecan-9-yl 6-((2-hydroxyethyl)(3-((2-hydroxyethyl)(4-oxo-4-(undecyloxy)butyl)amino)propyl)amino)hexanoate]	16.1	160	23.63	83.3	28.36	1377048	47.20					
CCCCCCCCCCOC(=O)CCCCCN(CCO)CCN(CCO)CCCCCC(=O)OCC(CCCCCCCC)CCCCCCCC [YK-410, 2-octyldecyl 6-((2-hydroxyethyl)(2-((2-hydroxyethyl)(6-(decyloxy)-6-oxohexyl)amino)ethyl)amino)hexanoate]	15.5	163	29.48	88.2	33.42	407868	44.92					
CCCCCC(CC)OC(=O)CCCCCCCCN(CCO)CCN(CCO)CCCCCCCCC(=O)OC(CC)CCCCC (stereo not shown) [YK-404, di(octan-3-yl) 9, 9′-(ethane-1,2-diyl-bis((2-hydroxyethyl)azanediyl))dinonanoate]	4.2	142	28.45	75.3	33.41	7543	42.12					
